This is an account of results in patent US20240058408A1, “COMPOSITION FOR PREVENTING OR TREATING MACULAR DEGENERATION CONTAINING GINSENG BERRY EXTRACT” (HOLISTIC BIO CO., LTD., priority 2020, published 2024).

The assay deals with ARPE-19 cells. The assay is described as follows: Cell protection against blue light-induced photooxidation of A2E, extract treated after A2E. Format: cell-based. The conditions noted are these: Homo sapiens, ARPE-19, 20 min; 30 μM after A2E 20 μM (positive control), blue light 430 nm 6000 lux 20 min; read-out: cell viability compared to the normal group. The procedure: To investigate the photooxidation by blue light induction (post-treatment), ARPE-19 cells were seeded to a 96-well plate at 1×10^4 cell/well and then incubated→(24 hr later) A2E (20 μM) pre-treated once→(after 24 hr) post-treated with a ginseng berry extract (25, 50, 100 μg/ml) once→(after 24 hr) irradiated with blue light (6000 lux, 20 min)→and then, (after 24 hr) the cell viability was measured by using the cell count kit. Since the A2E accumulated in human retinal pigment epithelial cells (ARPE-19 cells) is known to induce cytotoxicity when irradiated with blue light (BL), cell protective capability and cell viability against blue light-induced photooxidation were analyzed. Human retinal pigment epithelial cells (ARPE-19 cells) were aliquoted in a 96-well tissue culture plate at a density of 1×10^4 cells/well and cultured for 24 hours. After treating with A2E at a concentration of 20 μM and culturing for 24 hours, the experimental group was treated with 25, 50, and 100 μg/mL of the ginseng berry extract, a positive control group was treated with 30 μM of lutein instead of the ginseng berry extract, and A2E was accumulated in a negative control group without preliminary drug treatment. After culturing for 24 hours, blue light (BL, 430 nm, 6000 lux) was irradiated for 20 minutes, and after 24 hours, the cell viability was measured by using the cell count kit.

SMILES strings stand for the structures.

In general, viability refers to a read-out of living cells in per cent, often relative to untreated cells. As for `CC1=C[C@H](O)CC(C)(C)[C@H]1/C=C/C(C)=C/C=C/C(C)=C/C=C/C=C(C)/C=C/C=C(C)/C=C/C1=C(C)C[C@@H](O)CC1(C)C` [lutein], the viability at 30 µM stood at 88.2%.
